The test system of data set [1] is normal BDF₁ mice. The method, then: The effect of carbetimer on sub-acute adriamycin toxicity in normal BDF₁ mice was evaluated. Normal BDF₁ mice were treated either with adriamycin alone at 21 mg/kg i.v. or with adriamycin at 21 mg/kg i.v. plus carbetimer 250 mg/kg i.v. given concurrently. […] Data are reported in Table III in absolute weights of animals and depicted in Figure 3 in terms of percent of original weights of the animals.

The test system of a further data set is MIA C51 cell line. Briefly: Trial VI: survival of rats inoculated with tumor cells. The format is in vivo. The note with it: Adriamycin 10 mg/kg i.v. Day One Only. The method, then:
Rats were inoculated with a million cells of MIA C51 cell line. Thereafter, animals were treated with saline control, carbetimer alone at 1700 mg/kg in days 1-5, or adriamycin at 10 mg/kg i.v., or adriamycin 10 mg/kg i.v. plus carbetimer at 1700 mg/kg i.p. Animals treated with the combination of carbetimer and adriamycin remained alive 40 days after treatment. The combination therapy provided greater tumor remission than carbetimer alone or adriamycin alone, indicating two drugs may act in an additive or synergistic manner to cure tumors in tumor-bearing rats. Data are reported in Table VI and depicted in Figure 6.

Data set [2] has as its system normal BDF₁ mice. The method, then: The effect of carbetimer on sub-acute adriamycin toxicity in normal BDF₁ mice was evaluated. Normal BDF₁ mice were treated either with adriamycin alone at 21 mg/kg i.v. or with adriamycin at 21 mg/kg i.v. plus carbetimer 500 mg/kg i.v. given concurrently. […]
This is another data set of the same source.

Data set [3] deals with normal BDF₁ mice. As to the method: The effect of carbetimer on acute adriamycin toxicity in normal BDF₁ mice was evaluated. Normal BDF₁ mice were treated with carbetimer alone at 1700 mg/kg i.p. with adriamycin alone at 21 mg/kg i.v. or the combination of the two drugs, carbetimer being given half an hour before adriamycin. […] Data are reported in Table I and depicted in Figure 1.
This is another data set of the same source.

For data set [4], the system named is normal BDF₁ mice. The method, then: The effect of carbetimer on sub-acute adriamycin toxicity in normal BDF₁ mice was evaluated. Normal BDF₁ mice were treated either with adriamycin alone at 21 mg/kg i.v. or with adriamycin at 21 mg/kg i.v. plus carbetimer 125 mg/kg i.v. given concurrently. […] Data are reported in Table IV in absolute weights of animals and depicted in Figure 4 in terms of percent of original weights of the animals.
This is another data set of the same source.

Setting [5] is: lethal dose of adriamycin alone, 21 mg/kg i.v.
[6] abbreviates: Adriamycin alone 21 mg/kg i.v., Day 6.

Like-named read-outs stand apart in the source and are kept apart here. Bounds are passed on as bounds.

Consider `COc1cccc2c1C(=O)c1c(O)c3c(c(O)c1C2=O)C[C@@](O)(C(=O)CO)C[C@@H]3O[C@H]1C[C@H](N)[C@H](O)[C@H](C)O1` [Adriamycin, doxorubicin], for which the mortality result in the data set with normal BDF₁ mice [1] (Adriamycin alone 21 mg/kb i.v., Day 6) is on record as “all dead”; in the data set on normal BDF₁ mice [2] (setting [6]), “all dead”; in the data set with normal BDF₁ mice [3] (Adriamycin 21 mg/kg i.v., 7 days post-treatment), “all dead”; in the data set on normal BDF₁ mice [4] (setting [6]), “all dead”. In addition, the “time to death from start of the therapy” value in the data set with normal BDF₁ mice [1] (setting [5]) is recorded as at most 8 days; in the data set with normal BDF₁ mice [2] (setting [5]), at most 8 days; in the data set with normal BDF₁ mice [3] (setting [5]) it was at most 8 days; with normal BDF₁ mice [4] (setting [5]), at most 10 days. The “% Rats Alive After Treatment” value with MIA C51 cell line (Days 0-8) came out at 100%; in the data set on MIA C51 cell line (Days 9-10) it was 100%; in the data set on MIA C51 cell line (Days 11-26), 100%; with MIA C51 cell line (Days 27-29), 80%; in the data set on MIA C51 cell line (Days 30-32), 0%; in the data set on MIA C51 cell line (Days 33-40), 0%. Moreover, the “% Rats Alive After Treatment” value in the data set with MIA C51 cell line (Days 41-43) was 0%.

The values are drawn from EP0393575B1, “Neoplasia treatment compositions containing antineoplastic agent and side-effect reducing protective agent” (priority 1989, dated 1990).
